According to the supplement of paper PMC10307832:

Columns and labels:
Assay in all cases: relative viability (nuclei count vs DMSO), 5 days (fraction); higher = more cells survive
ABC-1 = test system: ABC-1
In short: (§1)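 The day after seeding in 1536-well plates, lung cancer cell lines were treated by pin tool with a single drug, or with a fixed anchor-drug dose together with five library-drug doses (not always all listed) in √10 steps. After 5 days, a combined fix-and-stain solution (final 0.05% Triton X-100, 1% formaldehyde, 1 ug/ml Hoechst) was added. Nuclei counted on 4× images gave relative viability as treated counts over vehicle counts, reported as the median of duplicate plates.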

CAL-12T = test system: CAL-12T
In short: as §1

ChaGo-K-1 = test system: ChaGo-K-1
In short: as §1

EPLC-272H = test system: EPLC-272H
In short: as §1

HCC-366 = test system: HCC-366
In short: as §1

HCC-78 = test system: HCC-78
In short: as §1

LC-2-ad = test system: LC-2-ad
In short: as §1

LOU-NH91 = test system: LOU-NH91
In short: as §1

LU99A = test system: LU99A
In short: as §1

NCI-H1395 = test system: NCI-H1395
In short: as §1

NCI-H1651 = test system: NCI-H1651
In short: as §1

NCI-H1734 = test system: NCI-H1734
In short: as §1

NCI-H1755 = test system: NCI-H1755
In short: as §1

NCI-H1793 = test system: NCI-H1793
In short: as §1

NCI-H1944 = test system: NCI-H1944
In short: as §1

NCI-H2087 = test system: NCI-H2087
In short: as §1

NCI-H2170 = test system: NCI-H2170
In short: as §1

NCI-H2228 = test system: NCI-H2228
In short: as §1

NCI-H2405 = test system: NCI-H2405
In short: as §1

NCI-H3122 = test system: NCI-H3122
In short: as §1

NCI-H460 = test system: NCI-H460
In short: as §1

PC-3 [JPC-3] = test system: PC-3 [JPC-3]
In short: as §1

RERF-LC-KJ = test system: RERF-LC-KJ
In short: as §1

UMC-11 = test system: UMC-11
In short: as §1

For `C[C@@H]1CN(CC(=O)Nc2ccc3c(c2)Cc2cccc(-c4cc(=O)cc(N5CCOCC5)o4)c2S3)C[C@H](C)O1` + O=C(CCCCCCC(=O)Nc1ccccc1)NO [Vorinostat] (partner 1 µM), the relative viability (ABC-1; first compound 0.04 µM) was 0.917, the relative viability (ABC-1; first compound 0.1265 µM) was 1.14 and the relative viability (ABC-1; first compound 0.4 µM) was 1.23. It also gave a relative viability (ABC-1; first compound 4 µM) of 1.27, a relative viability (CAL-12T; first compound 0.04 µM) of 0.719 and a relative viability (CAL-12T; first compound 0.1265 µM) of 0.623. The relative viability (CAL-12T; first compound 0.4 µM) was 0.739, the relative viability (CAL-12T; first compound 4 µM) was 0.377 and the relative viability (ChaGo-K-1; first compound 0.04 µM) was 0.496. For the same compound, the relative viability (ChaGo-K-1; first compound 0.1265 µM) was 0.778, the relative viability (ChaGo-K-1; first compound 0.4 µM) was 0.803 and the relative viability (ChaGo-K-1; first compound 4 µM) was 0.72. For the same compound, the relative viability (EPLC-272H; first compound 0.04 µM) was 0.457, the relative viability (EPLC-272H; first compound 0.1265 µM) was 0.414 and the relative viability (EPLC-272H; first compound 0.4 µM) was 0.407. It also gave a relative viability (EPLC-272H; first compound 4 µM) of 0.307, a relative viability (HCC-366; first compound 0.04 µM) of 0.314 and a relative viability (HCC-366; first compound 0.1265 µM) of 0.366. For the same compound, the relative viability (HCC-366; first compound 0.4 µM) was 0.346, the relative viability (HCC-366; first compound 4 µM) was 0.264 and the relative viability (HCC-78; first compound 0.04 µM) was 0.455. The relative viability (HCC-78; first compound 0.1265 µM) was 0.417, the relative viability (HCC-78; first compound 0.4 µM) was 0.46 and the relative viability (HCC-78; first compound 4 µM) was 0.4. It also gave a relative viability (LC-2-ad; first compound 0.04 µM) of 0.639, a relative viability (LC-2-ad; first compound 0.1265 µM) of 0.679 and a relative viability (LC-2-ad; first compound 0.4 µM) of 0.712. The relative viability (LC-2-ad; first compound 4 µM) was 0.606, the relative viability (LOU-NH91; first compound 0.04 µM) was 0.611 and the relative viability (LOU-NH91; first compound 0.1265 µM) was 0.945. The relative viability (LOU-NH91; first compound 0.4 µM) was 0.847, the relative viability (LOU-NH91; first compound 4 µM) was 0.785 and the relative viability (LU99A; first compound 0.04 µM) was 0.444. It also gave a relative viability (LU99A; first compound 0.1265 µM) of 0.582, a relative viability (LU99A; first compound 0.4 µM) of 0.544 and a relative viability (LU99A; first compound 4 µM) of 0.595. For the same compound, the relative viability (NCI-H1395; first compound 0.1265 µM) was 0.631, the relative viability (NCI-H1395; first compound 0.4 µM) was 0.597 and the relative viability (NCI-H1395; first compound 4 µM) was 0.812. It also gave a relative viability (NCI-H1651; first compound 0.04 µM) of 0.541, a relative viability (NCI-H1651; first compound 0.1265 µM) of 0.535 and a relative viability (NCI-H1651; first compound 0.4 µM) of 0.538. The relative viability (NCI-H1651; first compound 4 µM) was 0.559, the relative viability (NCI-H1734; first compound 0.04 µM) was 0.602 and the relative viability (NCI-H1734; first compound 0.1265 µM) was 0.768. It also gave a relative viability (NCI-H1734; first compound 0.4 µM) of 0.812, a relative viability (NCI-H1734; first compound 4 µM) of 0.901 and a relative viability (NCI-H1755; first compound 0.04 µM) of 0.759. It also gave a relative viability (NCI-H1755; first compound 0.1265 µM) of 0.854, a relative viability (NCI-H1755; first compound 0.4 µM) of 0.729 and a relative viability (NCI-H1755; first compound 4 µM) of 0.87. For the same compound, the relative viability (NCI-H1793; first compound 0.04 µM) was 0.847, the relative viability (NCI-H1793; first compound 0.1265 µM) was 0.745 and the relative viability (NCI-H1793; first compound 0.4 µM) was 0.762. The relative viability (NCI-H1793; first compound 4 µM) was 0.574, the relative viability (NCI-H1944; first compound 0.1265 µM) was 0.716 and the relative viability (NCI-H1944; first compound 0.4 µM) was 0.594. The relative viability (NCI-H1944; first compound 4 µM) was 0.637, the relative viability (NCI-H2087; first compound 0.04 µM) was 0.85 and the relative viability (NCI-H2087; first compound 0.1265 µM) was 0.587. The relative viability (NCI-H2087; first compound 0.4 µM) was 0.663, the relative viability (NCI-H2087; first compound 4 µM) was 0.62 and the relative viability (NCI-H2170; first compound 0.04 µM) was 0.857. It also gave a relative viability (NCI-H2170; first compound 0.1265 µM) of 0.811, a relative viability (NCI-H2170; first compound 0.4 µM) of 0.798 and a relative viability (NCI-H2170; first compound 4 µM) of 0.742. For the same compound, the relative viability (NCI-H2228; first compound 0.04 µM) was 0.667, the relative viability (NCI-H2228; first compound 0.1265 µM) was 0.589 and the relative viability (NCI-H2228; first compound 0.4 µM) was 0.852. The relative viability (NCI-H2228; first compound 4 µM) was 0.569, the relative viability (NCI-H2405; first compound 0.04 µM) was 1.06 and the relative viability (NCI-H2405; first compound 0.1265 µM) was 1.12. The relative viability (NCI-H2405; first compound 0.4 µM) was 0.94, the relative viability (NCI-H2405; first compound 4 µM) was 1.01 and the relative viability (NCI-H3122; first compound 0.04 µM) was 1.01. The relative viability (NCI-H3122; first compound 0.1265 µM) was 0.84, the relative viability (NCI-H3122; first compound 0.4 µM) was 1 and the relative viability (NCI-H3122; first compound 4 µM) was 1.29. The relative viability (NCI-H460; first compound 0.04 µM) was 0.69, the relative viability (NCI-H460; first compound 0.1265 µM) was 0.738 and the relative viability (NCI-H460; first compound 0.4 µM) was 0.704. For the same compound, the relative viability (NCI-H460; first compound 4 µM) was 0.203, the relative viability (PC-3 [JPC-3]; first compound 0.04 µM) was 0.822 and the relative viability (PC-3 [JPC-3]; first compound 0.1265 µM) was 0.792. It also gave a relative viability (PC-3 [JPC-3]; first compound 0.4 µM) of 0.821, a relative viability (PC-3 [JPC-3]; first compound 4 µM) of 0.821 and a relative viability (RERF-LC-KJ; first compound 0.04 µM) of 0.648. It also gave a relative viability (RERF-LC-KJ; first compound 0.1265 µM) of 0.655, a relative viability (RERF-LC-KJ; first compound 0.4 µM) of 0.738 and a relative viability (RERF-LC-KJ; first compound 4 µM) of 0.543. For the same compound, the relative viability (UMC-11; first compound 0.04 µM) was 0.378, the relative viability (UMC-11; first compound 0.1265 µM) was 0.433 and the relative viability (UMC-11; first compound 0.4 µM) was 0.441. It also gave a relative viability (UMC-11; first compound 4 µM) of 0.366.
